PubChem BioAssay AID248 (DTP/NCI, 2004)
Where “and” joins values, the source holds several entries; their conditions need not be identical. Equal entries are not always repeated. Toxic doses and inconclusive results are not listed.

System: L1210 leukemia ip in BDF1 mice, survival T/C
Experiment: NCI In Vivo Anticancer Drug Screen. Data for tumor model L1210 Leukemia (intraperitoneal) in B6D2F1 (BDF1) mice
Conditions: endpoint: mean survival time, higher = longer survival
Outline: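 Transplantable tumor model; survival measured in treated vs vehicle control mice. Value = treated/control.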

[1] = dose: 12.5 mg/kg/injection, schedule: Q01DX009 (ip), vehicle: Klucel (hydroxypropylcellulose) (HPC)
[2] = dose: 25.0 mg/kg/injection, schedule: Q01DX009 (ip), vehicle: saline
[3] = dose: 50.0 mg/kg/injection, schedule: Q01DX009 (ip), vehicle: saline
[4] = dose: 100.0 mg/kg/injection, schedule: Q04DX003 (ip), vehicle: saline
[5] = dose: 100.0 mg/kg/injection, schedule: Q01DX001 (ip), vehicle: carboxymethylcellulose (CMC)
[6] = dose: 100.0 mg/kg/injection, schedule: Q01DX009 (ip), vehicle: saline with Tween-80
[7] = dose: 200.0 mg/kg/injection, schedule: Q01DX001 (ip), vehicle: carboxymethylcellulose (CMC)
[8] = dose: 200.0 mg/kg/injection, schedule: Q01DX009 (ip), vehicle: saline with Tween-80
[9] = dose: 400.0 mg/kg/injection, schedule: Q01DX001 (ip), vehicle: carboxymethylcellulose (CMC)
[10] = dose: 400.0 mg/kg/injection, schedule: Q01DX009 (ip), vehicle: saline with Tween-80
[11] = dose: 100.0 mg/kg/injection, schedule: Q04DX002 (ip), vehicle: saline with Tween-80
[12] = dose: 100.0 mg/kg/injection, schedule: Q04DX003 (ip), vehicle: saline with Tween-80
[13] = dose: 200.0 mg/kg/injection, schedule: Q04DX002 (ip), vehicle: saline with Tween-80
[14] = dose: 200.0 mg/kg/injection, schedule: Q04DX003 (ip), vehicle: saline with Tween-80
[15] = dose: 50.0 mg/kg/injection, schedule: Q04DX003 (ip), vehicle: Klucel (hydroxypropylcellulose) (HPC)
[16] = dose: 100.0 mg/kg/injection, schedule: Q04DX003 (ip), vehicle: Klucel (hydroxypropylcellulose) (HPC)
[17] = dose: 50.0 mg/kg/injection, schedule: Q01DX009 (ip), vehicle: saline with Tween-80
[18] = dose: 200.0 mg/kg/injection, schedule: Q04DX003 (ip), vehicle: Klucel (hydroxypropylcellulose) (HPC)

## S=P(N1CC1)(N1CC1)N1CC1.[Cl-].[Cl-].[NH2-].[NH2-].[Pt+4]
dose: 1.8 mg/kg/injection, schedule: Q01DX009 (ip), vehicle: saline
  T/C: 111 % of control and 103 % of control and 101 % of control
dose: 2.7 mg/kg/injection, schedule: Q01DX009 (ip), vehicle: saline
  T/C: 111 % of control and 116 % of control
dose: 3.13 mg/kg/injection, schedule: Q01DX009 (ip), vehicle: Klucel (hydroxypropylcellulose) (HPC)
  T/C: 150 % of control and 152 % of control
dose: 4.1 mg/kg/injection, schedule: Q01DX009 (ip), vehicle: saline
  T/C: 164 % of control [middle of 5 runs]
dose: 6.25 mg/kg/injection, schedule: Q01DX009 (ip), vehicle: Klucel (hydroxypropylcellulose) (HPC)
  T/C: 211 % of control and 166 % of control and 227 % of control
dose: 6.25 mg/kg/injection, schedule: Q01DX009 (ip), vehicle: saline
  T/C: 233 % of control [middle of 4 runs]
dose: 9.3 mg/kg/injection, schedule: Q01DX009 (ip), vehicle: saline
  T/C: 200 % of control and 277 % of control
[1]
  T/C: 105 % of control and 92 % of control and 91 % of control
dose: 12.5 mg/kg/injection, schedule: Q01DX009 (ip), vehicle: saline
  T/C: 98 % of control and 103 % of control

## NCCC(=O)OC1CCCc2c(O)c3c(c(O)c21)C(=O)c1ccccc1C3=O (stereo not drawn)
dose: 12.5 mg/kg/injection, schedule: Q04DX003 (ip), vehicle: saline
  T/C: 93 % of control
[2]
  T/C: 93 % of control
dose: 25.0 mg/kg/injection, schedule: Q04DX003 (ip), vehicle: saline
  T/C: 95 % of control
[3]
  T/C: 97 % of control
dose: 50.0 mg/kg/injection, schedule: Q04DX003 (ip), vehicle: saline
  T/C: 98 % of control
[4]
  T/C: 102 % of control

## Cc1ccc2c(C)cc(=O)[nH]c2c1
[5]
  T/C: 102 % of control
[6]
  T/C: 102 % of control
[7]
  T/C: 91 % of control
[8]
  T/C: 101 % of control
[9]
  T/C: 105 % of control
[10]
  T/C: 106 % of control

## CC1=C2CC(C(C)(C)O)CCC2(C)CC/C1=N\NC(N)=S (stereo not drawn)
[6]
  T/C: 98 % of control
[10]
  T/C: 86 % of control

## c1ccc(Nc2ncc3cnccn23)cc1
[2]
  T/C: 96 % of control
[3]
  T/C: 90 % of control
dose: 100.0 mg/kg/injection, schedule: Q01DX009 (ip), vehicle: saline
  T/C: 97 % of control

## O=c1cc(CSCCO)[nH]c(=O)[nH]1
[4]
  T/C: 102 % of control
dose: 200.0 mg/kg/injection, schedule: Q04DX003 (ip), vehicle: saline
  T/C: 96 % of control
dose: 400.0 mg/kg/injection, schedule: Q04DX003 (ip), vehicle: saline
  T/C: 104 % of control

## CCC(O)(c1ccccc1)c1cnc(C)n1Cc1ccccc1 (stereo not drawn)
dose: 100.0 mg/kg/injection, schedule: Q01DX001 (ip), vehicle: saline with Tween-80
  T/C: 100 % of control and 108 % of control
dose: 100.0 mg/kg/injection, schedule: Q04DX002 (ip), vehicle: Klucel (hydroxypropylcellulose) (HPC)
  T/C: 102 % of control
[11]
  T/C: 93 % of control and 105 % of control
[12]
  T/C: 101 % of control
dose: 200.0 mg/kg/injection, schedule: Q01DX001 (ip), vehicle: saline with Tween-80
  T/C: 107 % of control and 91 % of control
dose: 200.0 mg/kg/injection, schedule: Q04DX002 (ip), vehicle: Klucel (hydroxypropylcellulose) (HPC)
  T/C: 112 % of control
[13]
  T/C: 88 % of control and 91 % of control
[14]
  T/C: 100 % of control
dose: 400.0 mg/kg/injection, schedule: Q04DX002 (ip), vehicle: saline with Tween-80
  T/C: 88 % of control and 90 % of control

## CCCCCCCCN(C)N=Nc1ccccc1C(=O)O
[1]
  T/C: 109 % of control
dose: 12.5 mg/kg/injection, schedule: Q04DX003 (ip), vehicle: Klucel (hydroxypropylcellulose) (HPC)
  T/C: 102 % of control
dose: 25.0 mg/kg/injection, schedule: Q01DX009 (ip), vehicle: Klucel (hydroxypropylcellulose) (HPC)
  T/C: 106 % of control and 116 % of control
dose: 25.0 mg/kg/injection, schedule: Q04DX003 (ip), vehicle: Klucel (hydroxypropylcellulose) (HPC)
  T/C: 95 % of control
dose: 50.0 mg/kg/injection, schedule: Q01DX009 (ip), vehicle: Klucel (hydroxypropylcellulose) (HPC)
  T/C: 122 % of control
[15]
  T/C: 108 % of control
dose: 60.0 mg/kg/injection, schedule: Q01DX009 (ip), vehicle: Klucel (hydroxypropylcellulose) (HPC)
  T/C: 122 % of control
[16]
  T/C: 114 % of control
dose: 200.0 mg/kg/injection, schedule: Q01DX009 (ip), vehicle: Klucel (hydroxypropylcellulose) (HPC)
  T/C: 114 % of control
dose: 400.0 mg/kg/injection, schedule: Q01DX009 (ip), vehicle: Klucel (hydroxypropylcellulose) (HPC)
  T/C: 92 % of control

## O=[N+]([O-])Nc1cc(Cl)nc(Cl)c1
dose: 75.0 mg/kg/injection, schedule: Q01DX001 (ip), vehicle: carboxymethylcellulose (CMC)
  T/C: 105 % of control
dose: 150.0 mg/kg/injection, schedule: Q01DX001 (ip), vehicle: carboxymethylcellulose (CMC)
  T/C: 97 % of control

## CCc1cccc(CC)c1NC(=O)Nc1ccccc1F
dose: 100.0 mg/kg/injection, schedule: Q01DX009 (ip), vehicle: other
  T/C: 91 % of control
dose: 200.0 mg/kg/injection, schedule: Q01DX009 (ip), vehicle: other
  T/C: 102 % of control
dose: 400.0 mg/kg/injection, schedule: Q01DX009 (ip), vehicle: other
  T/C: 105 % of control

## COC(=O)NC(C)(NC(=O)OC)C(=O)OC
[6]
  T/C: 104 % of control
[8]
  T/C: 106 % of control
[10]
  T/C: 97 % of control

## COc1cc(CC2Cc3cccc(=O)c(O)c3C(=O)O2)cc(OC)c1OC (stereo not drawn)
[12]
  T/C: 90 % of control
[14]
  T/C: 95 % of control
dose: 400.0 mg/kg/injection, schedule: Q04DX003 (ip), vehicle: saline with Tween-80
  T/C: 92 % of control

## CN(C)CC1CCCCCC(Br)C1=O (stereo not drawn)
dose: 75.0 mg/kg/injection, schedule: Q01DX001 (ip), vehicle: other
  T/C: 98 % of control
dose: 150.0 mg/kg/injection, schedule: Q01DX001 (ip), vehicle: other
  T/C: 95 % of control
dose: 300.0 mg/kg/injection, schedule: Q01DX001 (ip), vehicle: other
  T/C: 107 % of control

## CCCCCCN(CCCCCC)CCC(=O)c1ccc2cc(Br)c3ccccc3c2c1
dose: 13.3 mg/kg/injection, schedule: Q01DX Z (ip), vehicle: methylcellulose (MC)
  T/C: 92 % of control
dose: 20.0 mg/kg/injection, schedule: Q01DX Z (ip), vehicle: methylcellulose (MC)
  T/C: 86 % of control
dose: 30.0 mg/kg/injection, schedule: Q01DX Z (ip), vehicle: methylcellulose (MC)
  T/C: 92 % of control

## Cc1cccc2c(CCC(=O)O)c[nH]c12
dose: 100.0 mg/kg/injection, schedule: Q01DX001 (ip), vehicle: saline
  T/C: 100 % of control
dose: 200.0 mg/kg/injection, schedule: Q01DX001 (ip), vehicle: saline
  T/C: 94 % of control
dose: 400.0 mg/kg/injection, schedule: Q01DX001 (ip), vehicle: saline
  T/C: 94 % of control

## CC(=O)C1CCC2C3CCC4=CC(=O)CC4(C)C3CCC12C (stereo not drawn)
[17]
  T/C: 113 % of control
[6]
  T/C: 105 % of control
[8]
  T/C: 90 % of control

## O=C(N/N=C\c1ccccc1O)c1ccco1
[5]
  T/C: 98 % of control
[7]
  T/C: 95 % of control
[9]
  T/C: 95 % of control

## C#CCN(CCCC)CCCC
[11]
  T/C: 95 % of control
[13]
  T/C: 100 % of control

## CCc1ccccc1NC(=O)Nc1cccc(O)c1
[6]
  T/C: 100 % of control
[8]
  T/C: 89 % of control
[10]
  T/C: 94 % of control

## CNC(=O)c1cnc(SC)nc1N
[15]
  T/C: 103 % of control
dose: 100.0 mg/kg/injection, schedule: Q01DX001 (ip), vehicle: Klucel (hydroxypropylcellulose) (HPC)
  T/C: 103 % of control
[16]
  T/C: 101 % of control
dose: 200.0 mg/kg/injection, schedule: Q01DX001 (ip), vehicle: Klucel (hydroxypropylcellulose) (HPC)
  T/C: 100 % of control
[18]
  T/C: 111 % of control

## O=c1nc(-c2ccccc2)c(-c2ccccc2)n[nH]1
[17]
  T/C: 91 % of control
[6]
  T/C: 98 % of control
[16]
  T/C: 107 % of control
[8]
  T/C: 98 % of control
[18]
  T/C: 100 % of control
dose: 400.0 mg/kg/injection, schedule: Q04DX003 (ip), vehicle: Klucel (hydroxypropylcellulose) (HPC)
  T/C: 102 % of control

## CCCCN=C([Se])NCCCC
dose: 15.0 mg/kg/injection, schedule: Q01DX015 (ip), vehicle: carboxymethylcellulose (CMC)
  T/C: 103 % of control
dose: 30.0 mg/kg/injection, schedule: Q01DX015 (ip), vehicle: carboxymethylcellulose (CMC)
  T/C: 96 % of control
dose: 60.0 mg/kg/injection, schedule: Q01DX015 (ip), vehicle: carboxymethylcellulose (CMC)
  T/C: 97 % of control
